According to patent publication US4363805A, “Aminodesoxy-1.4;3.6-dianhydrohexitol nitrates and pharmaceutical composition” (Firma Willmar Schwabe, priority 1980, dated 1982):

Key:
[1] = tested on: isolated guinea pig hearts; experiment: Experiments on Langendorff hearts (coronary flowthrough, inotropism, frequency); settings: Cavia porcellus, read-out: flowthrough, percentage change with regard to the initial value
Protocol: After reaching the stationary state in the 30th minute, the hearts were each perfused with 50 ml. tyrode solution with a content of test substance of, in each case, 25 μg./ml. Each test substance was tested on 3-6 hearts.
In each case, there was measured the inotropism, the flowthrough and the frequency, whereby the values given in Table I are average values of the percentage changes in comparison with the initial values.

narcotised guinea pigs = experiment: Blood pressure experiments on guinea pigs, i.v.; assay type: in vivo, guinea pig; settings: for blood pressure before: before administration
female NMRI-albino mice = experiment: Acute toxicity, intravenous, mice; assay type: in vivo; settings: within 24 hours
[2] = Acute toxicity, intravenous, mice; assay type: in vivo; settings: mouse, in vivo; intravenous, within 24 hours; read-out: Evaluated LD50-range
mongrel cats = experiment: Inotropic and heart-circulatory effectiveness on narcotised cats, intravenous; assay type: in vivo, cat; settings: 6 animals; for blood pressure before / dp/dt (inotropism) before / heart frequency before: before administration

O=[N+]([O-])O[C@H]1CO[C@H]2[C@@H]1OC[C@@H]2NC12CC3CC(CC(C3)C1)C2 [11 b]
activation at 25 µg/mL [1]: 145%

COc1ccc(CCCN[C@H]2CO[C@H]3[C@@H]2OC[C@@H]3O[N+](=O)[O-])cc1OC [31 b]
activation at 25 µg/mL [1]: 79.4%

CC(=O)N[C@H]1CO[C@H]2[C@@H]1OC[C@@H]2O[N+](=O)[O-] [Example 6, 5-Acetylamino-5-desoxy-1.4;3.6-dianhydro-L-iditol 2-nitrate]
blood pressure after (narcotised guinea pigs; 0.25 mg/kg i.v.): 63.75 ± 7.32 mm.Hg | blood pressure Δ (narcotised guinea pigs; 0.25 mg/kg i.v.): -7.00 mm.Hg | blood pressure before (narcotised guinea pigs; 0.25 mg/kg i.v.): 70.75 ± 6.36 mm.Hg | blood pressure after (narcotised guinea pigs; 1.00 mg/kg i.v.): 55.75 ± 7.94 mm.Hg | blood pressure Δ (narcotised guinea pigs; 1.00 mg/kg i.v.): -14.50 mm.Hg | blood pressure after (narcotised guinea pigs; 2.50 mg/kg i.v.): 47.75 ± 5.88 mm.Hg | blood pressure Δ (narcotised guinea pigs; 2.50 mg/kg i.v.): -17.75 mm.Hg | Frequency of death (female NMRI-albino mice; 200 mg/kg i.v.): 0/3 | LD50 at 24 h [2]: > 200 mg/kg

CN(CCc1ccccc1)[C@H]1CO[C@H]2[C@@H]1OC[C@@H]2O[N+](=O)[O-] [Example 20, 5-[N-(2-Phenylethyl)-N-methylamino]-5-desoxy-1.4;3.6-dianhydro-L-iditol 2-nitrate]
activation at 25 µg/mL [1]: 66.9%

CN(CCCCCc1ccccc1)[C@H]1CO[C@H]2[C@@H]1OC[C@@H]2O[N+](=O)[O-] [Example 23, 5-[N-Methyl-N-(5-phenylpentyl)-amino]-5-desoxy-1.4;3.6-dianhydro-L-iditol 2-nitrate]
activation at 25 µg/mL [1]: 156%

CN(CC=Cc1ccccc1)[C@H]1CO[C@H]2[C@@H]1OC[C@@H]2O[N+](=O)[O-] [Example 24, 5-(N-Cinnamyl-N-methylamino)-5-desoxy-1.4;3.6-dianhydro-L-iditol 2-nitrate]
activation at 25 µg/mL [1]: 200%

O=[N+]([O-])O[C@H]1CO[C@H]2[C@@H]1OC[C@@H]2NCCc1ccccc1 [Example 27, 5-(2-Phenylethylamino)-5-desoxy-1.4;3.6-dianhydro-L-iditol 2-nitrate]
activation at 25 µg/mL [1]: 67.2%

O=[N+]([O-])O[C@H]1CO[C@H]2[C@@H]1OC[C@@H]2NCCCCc1ccccc1 [Example 29, 5-(4-Phenylbutylamino)-5-desoxy-1.4;3.6-dianhydro-L-iditol 2-nitrate]
blood pressure before (mongrel cats; 0.25 mg/kg i.v.): 106.8 mm.Hg | dp/dt (inotropism) before (mongrel cats; 0.25 mg/kg i.v.): 6480 mm.Hg/sec | heart frequency before (mongrel cats; 0.25 mg/kg i.v.): 209.0 min⁻¹ | blood pressure WD (mongrel cats; 0.25 mg/kg i.v.): 3.2 min | blood pressure after (mongrel cats; 0.25 mg/kg i.v.): 91.3 mm.Hg | blood pressure Δ (mongrel cats; 0.25 mg/kg i.v.): -15.5 mm.Hg | dp/dt (inotropism) after (mongrel cats; 0.25 mg/kg i.v.): 6000 mm.Hg/sec | dp/dt (inotropism) Δ (mongrel cats; 0.25 mg/kg i.v.): -480 mm.Hg/sec | dp/dt WD (mongrel cats; 0.25 mg/kg i.v.): 1.6 min | heart frequency after (mongrel cats; 0.25 mg/kg i.v.): 204.3 min⁻¹ | heart frequency Δ (mongrel cats; 0.25 mg/kg i.v.): -4.7 min⁻¹ | blood pressure WD (mongrel cats; 0.50 mg/kg i.v.): 4.1 min | blood pressure after (mongrel cats; 0.50 mg/kg i.v.): 91.3 mm.Hg | blood pressure Δ (mongrel cats; 0.50 mg/kg i.v.): -22.0 mm.Hg | dp/dt (inotropism) after (mongrel cats; 0.50 mg/kg i.v.): 6000 mm.Hg/sec | dp/dt (inotropism) Δ (mongrel cats; 0.50 mg/kg i.v.): -1040 mm.Hg/sec | dp/dt WD (mongrel cats; 0.50 mg/kg i.v.): 8.2 min | heart frequency after (mongrel cats; 0.50 mg/kg i.v.): 204.7 min⁻¹ | heart frequency Δ (mongrel cats; 0.50 mg/kg i.v.): -7.3 min⁻¹ | blood pressure WD (mongrel cats; 1.00 mg/kg i.v.): 11.2 min | blood pressure after (mongrel cats; 1.00 mg/kg i.v.): 90.7 mm.Hg | blood pressure Δ (mongrel cats; 1.00 mg/kg i.v.): -34.0 mm.Hg | dp/dt (inotropism) after (mongrel cats; 1.00 mg/kg i.v.): 5000 mm.Hg/sec | dp/dt (inotropism) Δ (mongrel cats; 1.00 mg/kg i.v.): -2360 mm.Hg/sec | dp/dt WD (mongrel cats; 1.00 mg/kg i.v.): 25.5 min | heart frequency after (mongrel cats; 1.00 mg/kg i.v.): 197.7 min⁻¹ | heart frequency Δ (mongrel cats; 1.00 mg/kg i.v.): -11.7 min⁻¹ | blood pressure WD (mongrel cats; 2.50 mg/kg i.v.): > 10 min | blood pressure after (mongrel cats; 2.50 mg/kg i.v.): 80.8 mm.Hg | blood pressure Δ (mongrel cats; 2.50 mg/kg i.v.): -48.7 mm.Hg | dp/dt (inotropism) after (mongrel cats; 2.50 mg/kg i.v.): 3920 mm.Hg/sec | dp/dt (inotropism) Δ (mongrel cats; 2.50 mg/kg i.v.): -3580 mm.Hg/sec | dp/dt WD (mongrel cats; 2.50 mg/kg i.v.): > 10 min | heart frequency after (mongrel cats; 2.50 mg/kg i.v.): 182.0 min⁻¹ | heart frequency Δ (mongrel cats; 2.50 mg/kg i.v.): -23.0 min⁻¹ | Frequency of death (female NMRI-albino mice; 50 mg/kg i.v.): 5/6 | Frequency of death (female NMRI-albino mice; 100 mg/kg i.v.): 5/6 | Frequency of death (female NMRI-albino mice; 200 mg/kg i.v.): 3/3 | LD50 at 24 h [2]: < 50 mg/kg

O=[N+]([O-])O[C@H]1CO[C@H]2[C@@H]1OC[C@@H]2NCCCOc1ccccc1 [Example 36, 5-(3-Phenoxypropylamino)-5-desoxy-1.4;3.6-dianhydro-L-iditol 2-nitrate]
blood pressure before (mongrel cats; 0.25 mg/kg i.v.): 114.5 mm.Hg | dp/dt (inotropism) before (mongrel cats; 0.25 mg/kg i.v.): 7933 mm.Hg/sec | heart frequency before (mongrel cats; 0.25 mg/kg i.v.): 200.3 min⁻¹ | blood pressure WD (mongrel cats; 0.25 mg/kg i.v.): 5.1 min | blood pressure after (mongrel cats; 0.25 mg/kg i.v.): 97.7 mm.Hg | blood pressure Δ (mongrel cats; 0.25 mg/kg i.v.): -19.8 mm.Hg | dp/dt (inotropism) after (mongrel cats; 0.25 mg/kg i.v.): 7433 mm.Hg/sec | dp/dt (inotropism) Δ (mongrel cats; 0.25 mg/kg i.v.): -500 mm.Hg/sec | dp/dt WD (mongrel cats; 0.25 mg/kg i.v.): 3.3 min | heart frequency after (mongrel cats; 0.25 mg/kg i.v.): 204.3 min⁻¹ | blood pressure WD (mongrel cats; 0.50 mg/kg i.v.): 8.5 min | blood pressure after (mongrel cats; 0.50 mg/kg i.v.): 84.5 mm.Hg | blood pressure Δ (mongrel cats; 0.50 mg/kg i.v.): -28.0 mm.Hg | dp/dt (inotropism) after (mongrel cats; 0.50 mg/kg i.v.): 6650 mm.Hg/sec | dp/dt (inotropism) Δ (mongrel cats; 0.50 mg/kg i.v.): -1183 mm.Hg/sec | dp/dt WD (mongrel cats; 0.50 mg/kg i.v.): 7.9 min | heart frequency after (mongrel cats; 0.50 mg/kg i.v.): 200.3 min⁻¹ | heart frequency Δ (mongrel cats; 0.50 mg/kg i.v.): -3.7 min⁻¹ | blood pressure WD (mongrel cats; 1.00 mg/kg i.v.): 14.8 min | blood pressure after (mongrel cats; 1.00 mg/kg i.v.): 74.3 mm.Hg | blood pressure Δ (mongrel cats; 1.00 mg/kg i.v.): -42.5 mm.Hg | dp/dt (inotropism) after (mongrel cats; 1.00 mg/kg i.v.): 5467 mm.Hg/sec | dp/dt (inotropism) Δ (mongrel cats; 1.00 mg/kg i.v.): -2416 mm.Hg/sec | dp/dt WD (mongrel cats; 1.00 mg/kg i.v.): 19.0 min | heart frequency after (mongrel cats; 1.00 mg/kg i.v.): 194.3 min⁻¹ | heart frequency Δ (mongrel cats; 1.00 mg/kg i.v.): -8.0 min⁻¹ | blood pressure WD (mongrel cats; 2.50 mg/kg i.v.): > 10 min | blood pressure after (mongrel cats; 2.50 mg/kg i.v.): 62.5 mm.Hg | blood pressure Δ (mongrel cats; 2.50 mg/kg i.v.): -58.3 mm.Hg | dp/dt (inotropism) after (mongrel cats; 2.50 mg/kg i.v.): 4000 mm.Hg/sec | dp/dt (inotropism) Δ (mongrel cats; 2.50 mg/kg i.v.): -3883 mm.Hg/sec | dp/dt WD (mongrel cats; 2.50 mg/kg i.v.): 10 min | heart frequency after (mongrel cats; 2.50 mg/kg i.v.): 175.3 min⁻¹ | heart frequency Δ (mongrel cats; 2.50 mg/kg i.v.): -22.4 min⁻¹ | Frequency of death (female NMRI-albino mice; 50 mg/kg i.v.): 0/3 | Frequency of death (female NMRI-albino mice; 100 mg/kg i.v.): 5/6 | LD50 at 24 h [2]: 50 to 100 mg/kg

N#Cc1ccccc1OCC(O)CN[C@H]1CO[C@H]2[C@@H]1OC[C@@H]2O[N+](=O)[O-] (stereo partly drawn) [Example 50, 5-[2-Hydroxy-3-(2-cyanophenoxy)-propylamino]-5-desoxy-1.4;3.6-dianhydro-L-iditol 2-nitrate]
blood pressure before (mongrel cats; 0.25 mg/kg i.v.): 121.0 mm.Hg | dp/dt (inotropism) before (mongrel cats; 0.25 mg/kg i.v.): 6533 mm.Hg/sec | heart frequency before (mongrel cats; 0.25 mg/kg i.v.): 190.7 min⁻¹ | blood pressure WD (mongrel cats; 0.25 mg/kg i.v.): 8.5 min | blood pressure after (mongrel cats; 0.25 mg/kg i.v.): 108.3 mm.Hg | blood pressure Δ (mongrel cats; 0.25 mg/kg i.v.): -12.7 mm.Hg | dp/dt (inotropism) after (mongrel cats; 0.25 mg/kg i.v.): 6033 mm.Hg/sec | dp/dt (inotropism) Δ (mongrel cats; 0.25 mg/kg i.v.): -500 mm.Hg/sec | dp/dt WD (mongrel cats; 0.25 mg/kg i.v.): 8.2 min | heart frequency after (mongrel cats; 0.25 mg/kg i.v.): 195.3 min⁻¹ | heart frequency Δ (mongrel cats; 0.25 mg/kg i.v.): +4.6 min^-1 | blood pressure WD (mongrel cats; 0.50 mg/kg i.v.): 9.8 min | blood pressure after (mongrel cats; 0.50 mg/kg i.v.): 102.2 mm.Hg | blood pressure Δ (mongrel cats; 0.50 mg/kg i.v.): -18.0 mm.Hg | dp/dt (inotropism) after (mongrel cats; 0.50 mg/kg i.v.): 5133 mm.Hg/sec | dp/dt (inotropism) Δ (mongrel cats; 0.50 mg/kg i.v.): -1267 mm.Hg/sec | dp/dt WD (mongrel cats; 0.50 mg/kg i.v.): 8.2 min | heart frequency after (mongrel cats; 0.50 mg/kg i.v.): 195.3 min⁻¹ | heart frequency Δ (mongrel cats; 0.50 mg/kg i.v.): +3.3 min^-1 | blood pressure WD (mongrel cats; 1.00 mg/kg i.v.): 14.8 min | blood pressure after (mongrel cats; 1.00 mg/kg i.v.): 94.2 mm.Hg | blood pressure Δ (mongrel cats; 1.00 mg/kg i.v.): -27.8 mm.Hg | dp/dt (inotropism) after (mongrel cats; 1.00 mg/kg i.v.): 4200 mm.Hg/sec | dp/dt (inotropism) Δ (mongrel cats; 1.00 mg/kg i.v.): -2067 mm.Hg/sec | dp/dt WD (mongrel cats; 1.00 mg/kg i.v.): 14.8 min | heart frequency after (mongrel cats; 1.00 mg/kg i.v.): 191.7 min⁻¹ | heart frequency Δ (mongrel cats; 1.00 mg/kg i.v.): 0 min⁻¹ | blood pressure WD (mongrel cats; 2.50 mg/kg i.v.): > 10 min | blood pressure after (mongrel cats; 2.50 mg/kg i.v.): 77.5 mm.Hg | blood pressure Δ (mongrel cats; 2.50 mg/kg i.v.): -45.8 mm.Hg | dp/dt (inotropism) after (mongrel cats; 2.50 mg/kg i.v.): 2733 mm.Hg/sec | dp/dt (inotropism) Δ (mongrel cats; 2.50 mg/kg i.v.): -3584 mm.Hg/sec | dp/dt WD (mongrel cats; 2.50 mg/kg i.v.): > 10 min | heart frequency after (mongrel cats; 2.50 mg/kg i.v.): 178.7 min⁻¹ | heart frequency Δ (mongrel cats; 2.50 mg/kg i.v.): -10.3 min⁻¹ | blood pressure after (narcotised guinea pigs; 0.25 mg/kg i.v.): 39.25 ± 6.97 mm.Hg | blood pressure Δ (narcotised guinea pigs; 0.25 mg/kg i.v.): -16.25 mm.Hg | blood pressure before (narcotised guinea pigs; 0.25 mg/kg i.v.): 55.50 ± 7.35 mm.Hg | blood pressure after (narcotised guinea pigs; 1.00 mg/kg i.v.): 31.00 ± 3.94 mm.Hg | blood pressure Δ (narcotised guinea pigs; 1.00 mg/kg i.v.): -21.50 mm.Hg | blood pressure after (narcotised guinea pigs; 2.50 mg/kg i.v.): 22.75 ± 1.80 mm.Hg | blood pressure Δ (narcotised guinea pigs; 2.50 mg/kg i.v.): -27.75 mm.Hg | Frequency of death (female NMRI-albino mice; 100 mg/kg i.v.): 0/3 | Frequency of death (female NMRI-albino mice; 200 mg/kg i.v.): 4/6 | LD50 at 24 h [2]: 100 to 200 mg/kg
